Laboratory results reported in publication PMC8279409, “Novel Mixed NOP/Opioid Receptor Peptide Agonists” (Journal of Medicinal Chemistry, 2021).
Read-outs that look alike come from different tables or passages of the source. Where a SMILES comes first, the peptide text is derived from it. Where no end group is shown, it is not given here. [ ]: non-standard residue; d: D form. Phe(4-F) = N[C@@H](Cc1ccc(F)cc1)C(=O)O; 1Nal = N[C@@H](Cc1cccc2ccccc12)C(=O)O; Dmt = Cc1cc(O)cc(C)c1C[C@H](N)C(=O)O

Columns and labels:
[1] = molecular target: T1, human NOP receptor (Homo sapiens, UniProt P41146); assay: Calcium mobilization, NOP receptor; type: cell-based; settings: for NOP pEC50 (CL95%): CHO cells coexpressing human NOP and Gαqi5, Fluo-4 AM, 37 °C, mean of at least three experiments in duplicate, CL95% in brackets; for NOP/mu CR (concentration ratio): calcium mobilization, NOP versus mu; for Emax: mean ± SEM of at least three experiments in duplicate, SEM
T1 construct: expressed in transfected cells; host or cells: CHO cells stably coexpressing the receptor and chimeric Gαqi5
Experimental: CHO cells stably coexpressing the human NOP or kappa or the mu receptor and the C-terminally modified Gαqi5 and CHO cells coexpressing the delta receptor and the GαqG66Di5 protein were generated and cultured as described previously.[45],[46] Cells were maintained in Dulbecco’s modified Eagle’s medium/nutrient mixture F-12 (DEMEM/F-12) supplemented with 10% FBS, 100 U/mL penicillin and 100 μg/mL streptomycin, 100 μg/mL hygromicin B, and 200 μg/mL G418 and cultured at 37 °C in 5% CO2 humidified air. Cells were seeded at a density of 50,000 cells/well into 96-well black, clear-bottom plates. The following day, the cells were incubated with Hanks’ balanced salt solution (HBSS) supplemented with 2.5 mM probenecid, 3 μM of the calcium-sensitive fluorescent dye Fluo-4 AM, and 0.01% pluronic acid for 30 min at 37 °C. After that time, the loading solution was aspirated and 100 μL/well of HBSS supplemented with 20 mM HEPES, 2.5 mM probenecid, and 500 μM brilliant black was added. Serial dilutions were carried out in HBSS/HEPES (20 mM) buffer (containing 0.02% BSA fraction V). After placing both plates (cell culture and master plate) into the fluorometric imaging plate reader FlexStation II (Molecular Devices, Sunnyvale, CA), fluorescence changes were measured. On-line additions were carried out in a volume of 50 μL/well. To facilitate drug diffusion into the wells, the present studies were performed at 37 °C. Maximum change in fluorescence, expressed as percent over the baseline fluorescence, was used to determine agonist response.
The pharmacological terminology adopted in this paper is consistent with IUPHAR recommendations.[59] All data are expressed as the mean ± standard error of the mean (SEM) of at least three experiments performed in duplicate. […] Concentration-response curves to agonists were fitted to the classical four-parameter logistic nonlinear regression model:
Effect = Baseline + (Emax – Baseline)/(1 + 10^(LogEC50 – Log[compound]) × Hillslope). Curve fitting was performed using PRISM 6.0 (GraphPad Software Inc., San Diego).

[2] = molecular target: T2, human mu receptor (Homo sapiens, UniProt P35372); assay: Calcium mobilization, mu opioid receptor; type: cell-based; settings: for mu pEC50 (CL95%): CHO cells coexpressing human mu receptor and Gαqi5, Fluo-4 AM, 37 °C, mean of at least three experiments in duplicate, CL95% in brackets; for pEC50_mu: molecular formula strings CSV, repeats calcium mobilization values of Tables 1-3; for Emax / activation at 10 µM: percent over the baseline fluorescence, SEM; for Emax: mean ± SEM of at least three experiments in duplicate; for activation at 10 µM: mean ± SEM
T2 construct: expressed in transfected cells; host or cells: CHO cells stably coexpressing the receptor and chimeric Gαqi5

[3] = read-out: NOP Emax ± S.E.M., Table 1 series, maximum change in fluorescence as percent over the baseline fluorescence
[4] = read-out: NOP Emax ± S.E.M., Table 2 series, percent over the baseline fluorescence
[5] = read-out: NOP Emax ± S.E.M., Table 3 series, percent over the baseline fluorescence
[6] = read-out: mu Emax ± S.E.M., Table 3 series
[7] = read-out: mu effect at 10 μM (crc incomplete), Table 1 series
[8] = read-out: mu effect at 10 μM (crc incomplete), Table 2 series

T2 sequence (P35372 whole entry): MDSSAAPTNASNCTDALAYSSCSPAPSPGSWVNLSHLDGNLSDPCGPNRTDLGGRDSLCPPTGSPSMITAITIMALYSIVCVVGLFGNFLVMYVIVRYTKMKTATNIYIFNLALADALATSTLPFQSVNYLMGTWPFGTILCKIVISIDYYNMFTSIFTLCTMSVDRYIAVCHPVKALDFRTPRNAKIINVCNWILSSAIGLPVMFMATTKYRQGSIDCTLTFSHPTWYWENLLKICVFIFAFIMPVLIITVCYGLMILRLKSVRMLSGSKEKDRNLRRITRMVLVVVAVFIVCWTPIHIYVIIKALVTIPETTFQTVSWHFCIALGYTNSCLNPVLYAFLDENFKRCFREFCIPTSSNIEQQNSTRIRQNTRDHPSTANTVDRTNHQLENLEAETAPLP
T1 sequence (P41146 whole entry): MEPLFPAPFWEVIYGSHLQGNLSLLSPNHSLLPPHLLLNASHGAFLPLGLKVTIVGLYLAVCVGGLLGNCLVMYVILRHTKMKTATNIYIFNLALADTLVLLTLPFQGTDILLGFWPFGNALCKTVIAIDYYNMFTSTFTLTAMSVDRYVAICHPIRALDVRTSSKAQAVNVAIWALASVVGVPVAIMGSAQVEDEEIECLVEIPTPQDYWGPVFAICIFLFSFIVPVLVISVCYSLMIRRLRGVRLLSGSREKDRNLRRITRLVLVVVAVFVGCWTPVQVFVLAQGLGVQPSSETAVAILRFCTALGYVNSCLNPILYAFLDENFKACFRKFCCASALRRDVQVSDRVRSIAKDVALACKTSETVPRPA

Compound | NOP pEC50 (CL95%) ([1]; Table 1 series, FlexStation II) | NOP/mu CR (concentration ratio) ([1]; Table 1 series) | Emax [1, 3] [%] | Emax [1, 4] [%] | Emax [1, 5] [%] | mu pEC50 (CL95%) ([2]; Table 1 series) | mu pEC50 (CL95%) ([2]; Table 2 series) | pEC50_mu [2] | Emax [2, 6] [%] | activation at 10 µM [2, 7] [%] | activation at 10 µM [2, 8] [%] | also measured
YGGFTGARKSARK-NH2 [Compound 3, [Tyr^1]N/OFQ(1-13)-NH2, reference compound] | 9.23 (9.07–9.39) | 0.001 | 380 ± 11 | 266 ± 14 | 236 ± 13 | crc incomplete; 10 μM: 197 ± 69 | crc incomplete; 10 μM: 217 ± 29 | crc incomplete | 251 ± 34 | 197 ± 69 | 217 ± 29 | NOP/mu CR (concentration ratio) ([1]; Table 3 series): <0.001
C[C@H](NC(=O)CNC(=O)[C@H](Cc1ccc(F)cc1)NC(=O)[C@H](Cc1ccccc1)NC(=O)CNC(=O)CNC(=O)[C@@H](N)Cc1ccc(O)cc1)C(=O)N[C@@H](CCCNC(=N)N)C(=O)N[C@@H](CCCCN)C(=O)N[C@@H](CO)C(=O)N[C@@H](C)C(=O)N[C@@H](CCCNC(=N)N)C(=O)N[C@@H](CCCCN)C(N)=O [Compound 21, [Tyr^1,(pF)Phe^5]N/OFQ(1-13)-NH2] (H-YGGF[Phe(4-F)]GARKSARK-NH2) |  |  |  | 311 ± 22 |  |  | crc incomplete; 10 μM: 256 ± 55 | crc incomplete |  |  | 256 ± 55 | 
YGGFHGARKSARK-NH2 [Compound 16, [Tyr^1,His^5]N/OFQ(1-13)-NH2] |  |  |  | 249 ± 23 |  |  | crc incomplete; 10 μM: 230 ± 37 | crc incomplete |  |  | 230 ± 37 | NOP pEC50 (CL95%) ([1]; Table 2 series): 7.39 (7.16–7.62); NOP/mu CR (concentration ratio) ([1]; Table 2 series): 0.05
Cc1cc(O)cc(C)c1C[C@H](N)C(=O)NCC(=O)NCC(=O)N[C@@H](Cc1ccccc1)C(=O)N[C@@H](Cc1cccc2ccccc12)C(=O)NCC(=O)N[C@@H](C)C(=O)N[C@@H](CCCNC(=N)N)C(=O)N[C@@H](CCCCN)C(=O)N[C@@H](CO)C(=O)N[C@@H](C)C(=O)N[C@@H](CCCNC(=N)N)C(=O)N[C@@H](CCCCN)C(N)=O [Compound 33, [Dmt^1,1Nal^5]N/OFQ(1-13)-NH2] (H-[Dmt]GGF[1Nal]GARKSARK-NH2) |  |  |  |  | 286 ± 19 |  |  |  | 349 ± 20 |  |  | 
Cc1cc(O)cc(C)c1C[C@H](N)C(=O)NCC(=O)NCC(=O)N[C@@H](Cc1ccccc1)C(=O)N[C@@H](Cc1ccc(O)cc1)C(=O)NCC(=O)N[C@@H](C)C(=O)N[C@@H](CCCNC(=N)N)C(=O)N[C@@H](CCCCN)C(=O)N[C@@H](CO)C(=O)N[C@@H](C)C(=O)N[C@@H](CCCNC(=N)N)C(=O)N[C@@H](CCCCN)C(N)=O [Compound 30, [Dmt^1,Tyr^5]N/OFQ(1-13)-NH2] (H-[Dmt]GGFYGARKSARK-NH2) |  |  |  |  | 304 ± 21 |  |  |  | 410 ± 25 |  |  | 
YGGFK(Ac)GARKSARK-NH2 [Compound 6, [Tyr^1,Lys(Ac)^5]N/OFQ(1-13)-NH2] | 8.55 (7.88–9.22) | 0.003 | 370 ± 16 |  |  | crc incomplete; 10 μM: 161 ± 31 |  | crc incomplete |  | 161 ± 31 |  | 
YGGFNGARKSARK-NH2 [Compound 4, [Tyr^1,Asn^5]N/OFQ(1-13)-NH2] | 8.70 (8.26–9.11) | 0.002 | 327 ± 15 |  |  | crc incomplete; 10 μM: 209 ± 29 |  | crc incomplete |  | 209 ± 29 |  | 
Cc1cc(O)cc(C)c1C[C@H](NC(=O)[C@H](Cc1ccccc1)NC(=O)CNC(=O)CNC(=O)[C@@H](N)Cc1ccc(O)cc1)C(=O)NCC(=O)N[C@@H](C)C(=O)N[C@@H](CCCNC(=N)N)C(=O)N[C@@H](CCCCN)C(=O)N[C@@H](CO)C(=O)N[C@@H](C)C(=O)N[C@@H](CCCNC(=N)N)C(=O)N[C@@H](CCCCN)C(N)=O [Compound 28, [Tyr^1,Dmt^5]N/OFQ(1-13)-NH2] (H-YGGF[Dmt]GARKSARK-NH2) |  |  |  | 251 ± 22 |  |  |  |  |  |  |  | Emax ([2]; read-out: mu Emax ± S.E.M., Table 2 series): 301 ± 35%
